Assay [1] deals with T1, SFRP-1 (Homo sapiens, UniProt Q8N474).
T1 sequence (Q8N474 32-314): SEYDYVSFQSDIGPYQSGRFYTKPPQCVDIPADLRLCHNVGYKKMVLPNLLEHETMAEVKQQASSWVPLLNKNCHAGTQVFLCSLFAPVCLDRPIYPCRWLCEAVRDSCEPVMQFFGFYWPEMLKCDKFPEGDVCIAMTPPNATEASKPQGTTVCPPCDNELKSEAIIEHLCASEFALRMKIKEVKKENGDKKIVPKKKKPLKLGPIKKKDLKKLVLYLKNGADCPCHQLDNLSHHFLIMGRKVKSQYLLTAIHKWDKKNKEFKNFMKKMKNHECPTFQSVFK
In words: Fluorescence polarization binding assay (competitive displacement of a probe compound from SFRP-1).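 Note: test compound competes with a fluorescent probe held by SFRP-1, seen as a drop in probe anisotropy after incubation in darkness, with anisotropy as function of rising compound dose.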 Particulars: fluorescence anisotropy, 45 nM SFRP-1, 20 nM probe.

For assay [2], the target named is T1, SFRP-1. In words: Cell-based assay for in vitro measurement of SFRP-1/SARP2 antagonist activity (U2OS cells co-transfected with 16x TCF-tk-Luciferase reporter, Wnt and hSFRP-1).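 For all read-outs here: U2OS cells co-transfected with a TCF-tk luciferase reporter, a Wnt vector, hSFRP-1 or empty vector and CMV-βgal, luciferase luminescence read in cell lysates alongside βgal activity.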 Particulars: for fold induction at 15 µM / fold induction at 10 µM: U2OS; for fold induction at 15 µM: single dose, luciferase reporter; for fold induction at 10 µM: read-out: Fold Induction with SFRP-1, U2OS cells, single dose 10 μM, luciferase reporter, fold induction over SFRP-1 control.

The mark [3] stands for this setting: read-out: Fold Induction with SFRP-1, Conc 15 μM, fold induction over SFRP-1 control, cells with SFRP-1.
Setting [4] is: read-out: Fold Induction without SFRP-1, Conc 15 μM, cells without SFRP-1 (specificity control).

This passage reports IC50, fold induction and EC50 results from patent US20060276464A1, “Diarylsulfone sulfonamides and use thereof” (Wyeth, priority 2005, published 2006).

Molecules are shown by their SMILES. Values joined by “and” are separate entries in the source; they are usually repeats but may differ in a detail not shown here. Equal entries are not always repeated. Where two headings read alike, the source gives them in different places.

As a reminder, the IC50 is the point on the concentration scale where inhibition reaches its midpoint. Low readings indicate higher potency, high ones lower potency. On SFRP-1 [1], `CC(C)c1ccc(S(=O)(=O)c2ccc3c(ccn3C)c2)cc1S(=O)(=O)NCCc1ccccn1` [Example 597, 2-isopropyl-5-[(1-methyl-1H-indol-5-yl)sulfonyl]-N-(2-pyridin-2-ylethyl)benzenesulfonamide] came in with an IC50 of 400 nM. The fold induction at 15 µM is 3.7 at SFRP-1 [2] (setting [3]) and 1.3 on SFRP-1 [2] (setting [4]).

Consider `COc1cccc(S(=O)(=O)c2ccc(C(C)C)c(S(=O)(=O)NC3CCOCC3)c2)c1` [Example 598, 2-isopropyl-5-[(3-methoxyphenyl)sulfonyl]-N-(tetrahydro-2H-pyran-4-yl)benzenesulfonamide], for which the IC50 on SFRP-1 [1] was found to be 900 nM. Besides, the figures for the fold induction at 15 µM at SFRP-1 [2] (setting [3]) and at SFRP-1 [2] (setting [4]) were 3.6 and 1.4, respectively.

The compound `CNc1ccc(S(=O)(=O)c2ccc(C(C)C)c(S(=O)(=O)NCCc3ccccn3)c2)c(C)c1` [Example 599, 2-isopropyl-5-{[2-methyl-4-(methylamino)phenyl]sulfonyl}-N-(2-pyridin-2-ylethyl)benzenesulfonamide] came in with an IC50 on SFRP-1 [1] of 600 nM. Also, the figures for the fold induction at 15 µM at SFRP-1 [2] (setting [3]) and at SFRP-1 [2] (setting [4]) were 4.2 and 1.4, respectively.

At SFRP-1 [1], `Cc1cc(N(C)C)ccc1S(=O)(=O)c1ccc(C(C)C)c(S(=O)(=O)NCCc2ccccn2)c1` [Example 600, 5-{[4-(dimethylamino)-2-methylphenyl]sulfonyl}-2-isopropyl-N-(2-pyridin-2-ylethyl)benzenesulfonamide] gave an IC50 of 2000 nM. The fold induction at 15 µM worked out at 3 at SFRP-1 [2] (setting [3]) and 1.1 on SFRP-1 [2] (setting [4]).

At SFRP-1 [1], `Cc1ccc(S(=O)(=O)c2ccc(F)cc2)cc1S(=O)(=O)NC1CCN(C(=O)N2CCOCC2)CC1` [Example 603, 5-[(4-fluorophenyl)sulfonyl]-2-methyl-N-[1-(morpholin-4-ylcarbonyl)piperidin-4-yl]benzenesulfonamide] displayed an IC50 of 8000 nM. Also, the fold induction at 15 µM was determined as 2.4 at SFRP-1 [2] (setting [3]) and 0.9 at SFRP-1 [2] (setting [4]).

`Cc1cccc(S(=O)(=O)c2ccc(Cl)c(S(=O)(=O)NC3CCOCC3)c2)c1` [Example 604, 2-chloro-5-[(3-methylphenyl)sulfonyl]-N-(tetrahydro-2H-pyran-4-yl)benzenesulfonamide] showed an IC50 at SFRP-1 [1] of 7000 nM. Moreover, the results for the fold induction at 15 µM on SFRP-1 [2] (setting [3]) and at SFRP-1 [2] (setting [4]) were 2.2 and 1.1, respectively.

The compound `CNc1ccc(S(=O)(=O)c2ccc(C(C)C)c(S(=O)(=O)NCCc3ccccn3)c2)cc1Cl` [Example 605, 5-{[3-chloro-4-(methylamino)phenyl]sulfonyl}-2-isopropyl-N-(2-pyridin-2-ylethyl)benzenesulfonamide] gave an IC50 at SFRP-1 [1] of 600 nM. The fold induction at 15 µM is 3.2 at SFRP-1 [2] (setting [3]) and 1.1 on SFRP-1 [2] (setting [4]).

Consider `COc1cccc(S(=O)(=O)c2ccc(Cl)c(S(=O)(=O)NC3CCOCC3)c2)c1` [Example 606, 2-chloro-5-[(3-methoxyphenyl)sulfonyl]-N-(tetrahydro-2H-pyran-4-yl)benzenesulfonamide], for which the IC50 at SFRP-1 [1] came out at 8000 nM. Moreover, the fold induction at 15 µM at SFRP-1 [2] (setting [3]) turned out to be 1.9; at SFRP-1 [2] (setting [4]) it was 1.

On SFRP-1 [1], `Cn1ccc2cc(S(=O)(=O)c3ccc(Cl)c(S(=O)(=O)NC4CCOCC4)c3)ccc21` [Example 607, 2-chloro-5-[(1-methyl-1H-indol-5-yl)sulfonyl]-N-(tetrahydro-2H-pyran-4-yl)benzenesulfonamide] had an IC50 of 2000 nM. The figures for the fold induction at 15 µM on SFRP-1 [2] (setting [3]) and at SFRP-1 [2] (setting [4]) were 2.3 and 1.1, respectively.

`CC(C)c1ccc(S(=O)(=O)c2ccc(N3CCN(C(=O)OC(C)(C)C)CC3)cc2)cc1S(=O)(=O)NC1CCOCC1` [Example 625, tert-butyl 4-[4-({4-isopropyl-3-[(tetrahydro-2H-pyran-4-ylamino)sulfonyl]phenyl}sulfonyl)phenyl]piperazine-1-carboxylate] registered an IC50 on SFRP-1 [1] of 3000 nM. For the same compound, the fold induction at 15 µM at SFRP-1 [2] (setting [3]) worked out at 2.2; on SFRP-1 [2] (setting [4]) it was 1.1.

With `CC(C)c1ccc(S(=O)(=O)c2ccc(N3C[C@@H](C)N[C@@H](C)C3)cc2)cc1S(=O)(=O)NC1CCOCC1` [Example 626, 5-({4-cis-3,5-dimethylpiperazin-1-ylphenyl}sulfonyl)-2-isopropyl-N-(tetrahydro-2H-pyran-4-yl)benzenesulfonamide], the IC50 on SFRP-1 [1] is 4000 nM. Moreover, the results for the fold induction at 15 µM on SFRP-1 [2] (setting [3]) and on SFRP-1 [2] (setting [4]) were 2.9 and 1.1, respectively.

`CC(C)c1ccc(S(=O)(=O)c2ccc(N3CCNCC3)cc2)cc1S(=O)(=O)NC1CCOCC1` [Example 628, 2-isopropyl-5-[(4-piperazin-1-ylphenyl)sulfonyl]-N-(tetrahydro-2H-pyran-4-yl)benzenesulfonamide]: on SFRP-1 [1], the IC50 came out at 3000 nM. For the same compound, the results for the fold induction at 15 µM on SFRP-1 [2] (setting [3]) and at SFRP-1 [2] (setting [4]) were 3.2 and 1.1, respectively.

With `O=S(=O)(NCCc1cccnc1)c1cc(S(=O)(=O)c2ccccc2)ccc1Cl` [Example 640, 2-chloro-5-(phenylsulfonyl)-N-(2-pyridin-3-ylethyl)benzenesulfonamide], on SFRP-1 [1], the IC50 came out at 1200 nM. Also, the fold induction at 15 µM at SFRP-1 [2] (setting [3]) was determined as 3.5; on SFRP-1 [2] (setting [4]) it was 1.2.

With `O=S(=O)(NCCc1ccncc1)c1cc(S(=O)(=O)c2ccccc2)ccc1Cl` [Example 641, 2-chloro-5-(phenylsulfonyl)-N-(2-pyridin-4-ylethyl)benzenesulfonamide], the IC50 at SFRP-1 [1] turned out to be 1100 nM. For the same compound, the results for the fold induction at 15 µM at SFRP-1 [2] (setting [3]) and on SFRP-1 [2] (setting [4]) were 3 and 1, respectively.

Consider `N#CCCNS(=O)(=O)c1cc(S(=O)(=O)c2ccccc2)ccc1Cl` [Example 643, 2-chloro-N-(2-cyanoethyl)-5-(phenylsulfonyl)benzenesulfonamide], for which the IC50 at SFRP-1 [1] is 2400 nM. Moreover, the fold induction at 15 µM at SFRP-1 [2] (setting [3]) was 3.2; on SFRP-1 [2] (setting [4]), 1.

Regarding `O=C(N1CCC(NS(=O)(=O)c2cc(S(=O)(=O)c3ccccc3)ccc2Cl)CC1)C(F)(F)F` [Example 647, 2-chloro-5-(phenylsulfonyl)-N-[1-(trifluoroacetyl)piperidin-4-yl]benzenesulfonamide], on SFRP-1 [1], the IC50 was 1400 nM. The fold induction at 15 µM on SFRP-1 [2] (setting [3]) was determined as 3.9; on SFRP-1 [2] (setting [4]) it was 1.1.

Take `CC(C)(C)C(=O)N1CCC(NS(=O)(=O)c2cc(S(=O)(=O)c3ccccc3)ccc2Cl)CC1` [Example 648, 2-chloro-N-[1-(2,2-dimethylpropanoyl)piperidin-4-yl]-5-(phenylsulfonyl)benzenesulfonamide]: on SFRP-1 [1], the IC50 turned out to be 5000 nM. Further, the fold induction at 15 µM on SFRP-1 [2] (setting [3]) was 2.9; on SFRP-1 [2] (setting [4]), 1.1.

`CC(C)(C)NC(=O)N1CCC(NS(=O)(=O)c2cc(S(=O)(=O)c3ccccc3)ccc2Cl)CC1` [Example 649, N-(tert-butyl)-4-({[2-chloro-5-(phenylsulfonyl)phenyl]sulfonyl}amino)piperidine-1-carboxamide] had an IC50 on SFRP-1 [1] of 1600 nM. The fold induction at 15 µM is 3 at SFRP-1 [2] (setting [3]) and 1.1 on SFRP-1 [2] (setting [4]).

`O=C(N1CCOCC1)N1CCC(NS(=O)(=O)c2cc(S(=O)(=O)c3ccccc3)ccc2Cl)CC1` [Example 650, 2-chloro-N-[1-(morpholin-4-ylcarbonyl)piperidin-4-yl]-5-(phenylsulfonyl)benzenesulfonamide] registered an IC50 on SFRP-1 [1] of 10000 nM. Besides, the fold induction at 15 µM is 3.4 at SFRP-1 [2] (setting [3]) and 1.1 on SFRP-1 [2] (setting [4]).

`N#CN1CCC(NS(=O)(=O)c2cc(S(=O)(=O)c3ccccc3)ccc2Cl)CC1` [Example 651, 2-chloro-N-(1-cyanopiperidin-4-yl)-5-(phenylsulfonyl)benzenesulfonamide] yielded an IC50 on SFRP-1 [1] of 400 nM. Moreover, the fold induction at 15 µM turned out to be 2.9 at SFRP-1 [2] (setting [3]) and 0.9 at SFRP-1 [2] (setting [4]).

As to `CC(C)c1ccc(S(=O)(=O)c2ccc(F)cc2)cc1S(=O)(=O)NCCc1ccc[n+]([O-])c1` [Example 652, 5-[(4-fluorophenyl)sulfonyl]-2-isopropyl-N-[2-(1-oxidopyridin-3-yl)ethyl]benzenesulfonamide], on SFRP-1 [1], the IC50 is 800 nM and 700 nM. In addition, the fold induction at 15 µM on SFRP-1 [2] (setting [3]) was 3.8; at SFRP-1 [2] (setting [4]), 1.

Broadly, the EC50 is the midpoint of the concentration-response curve. A lower EC50 goes with a more potent agent. The compound `O=C(c1ccc(F)cc1)N1CCC(NS(=O)(=O)c2cc(S(=O)(=O)c3ccccc3)ccc2Cl)CC1` [Example 656, 2-chloro-N-[1-(4-fluorobenzoyl)piperidin-4-yl]-5-(phenylsulfonyl)benzenesulfonamide] yielded an IC50 on SFRP-1 [1] of 2800 nM. At SFRP-1 [2], the midpoint of the response, the EC50, lay at 11700 nM and the fold induction at 10 µM came out at 2.2.

`N#Cc1ccc(C(=O)N2CCC(NS(=O)(=O)c3cc(S(=O)(=O)c4ccccc4)ccc3Cl)CC2)cc1` [Example 657, 2-chloro-N-[1-(4-cyanobenzoyl)piperidin-4-yl]-5-(phenylsulfonyl)benzenesulfonamide]: at SFRP-1 [1], the IC50 amounted to 2400 nM. In addition, at SFRP-1 [2], a half-maximal response (EC50) required 9030 nM and the fold induction at 10 µM is 2.4.

`O=C(c1ccc(C(F)(F)F)cc1)N1CCC(NS(=O)(=O)c2cc(S(=O)(=O)c3ccccc3)ccc2Cl)CC1` [Example 658, 2-chloro-5-(phenylsulfonyl)-N-{1-[4-(trifluoromethyl)benzoyl]piperidin-4-yl}benzenesulfonamide] registered an IC50 at SFRP-1 [1] of 800 nM. Besides, on SFRP-1 [2], the EC50 was found to be 6350 nM and the fold induction at 10 µM turned out to be 2.6.
